Assay results published in US20130171162A1, “COMPOSITIONS AND METHODS FOR THE PREVENTION OF OXIDATIVE DEGRADATION OF PROTEINS” (priority 2008, published 2013).
Entries after “also recorded” stand apart in the source; their conditions may differ. Where two headings read alike, the source gives them in different places.

What was measured:
[1] = tested on: PTH; experiment: Screening stabilizers for PTH oxidized by AAPH, H2O2 plus Fe(II), H2O2; rp-HPLC; assay type: physicochemical; conditions: for protection of PTH against oxidation: stress AAPH; for protection of PTH against oxidation / protection of Trp residue in PTH: 40° C., 6 hours; for protection of Trp residue in PTH: stress AAPH 1 mM, stabilizer 2 mg/mL
Experimental: The protein solution was subsequently stressed by the addition of 1 mM of AAPH, and incubated at 40° C. for 6 hours.
The experiments were carried on a Waters HPLC instrument using a C4 (Vydac, 214TP, 5μ, 2.1×250 mm). The solvent A was 0.1% trifluoracetic acid (TFA) in H2O and the solvent B was 0.08% TFA in acetonitrile. The samples were analyzed with a linear gradient from 20% B to 80% B at a flow rate of 0.2 mL/min in 45 min. The column temperature was set at 30° C.

[2] = tested on: PTH; experiment: as above; assay type: physicochemical
[3] = tested on: PTH; conditions: AAPH, FIG. 11
[4] = tested on: anti-VEGF antibody; conditions: for protection of anti-VEGF antibody against oxidation (basic peaks in IEC): AAPH, free Trp 2 or 10 mg/mL
[5] = Anti-VEGF antibody oxidation, IEC chromatogram; conditions: for oxidation / oxidative species in basic region of IEC: H2O2
[6] = stress H2O2 plus Fe(II) (Fenton reaction), 40° C., 6 hours

Molecule: OC[C@@H](O)[C@@H](O)[C@H](O)[C@H](O)CO [mannitol, Mannitol]
- protection of PTH against oxidation [1]: not protected by mannitol at all
- protection of PTH against oxidation ([2]; stress H2O2, 40° C., 6 hours): not protected by mannitol at all
- protection of PTH against oxidation [2, 6]: effective; also recorded: complete protection

Molecule: OC[C@H]1O[C@@](CO)(O[C@H]2O[C@H](CO)[C@@H](O)[C@H](O)[C@H]2O)[C@@H](O)[C@@H]1O [Sucrose, sucrose]
- protection of PTH against oxidation [2, 6]: less effective than mannitol

Molecule: CSCC[C@H](N)C(=O)O [free methionine, L-Methionine]
- Met oxidation of PTH, relative quantification by EIC [3]: suppressed the Met oxidation significantly
- effect on the oxidation of Trp in PTH (Trp[O] peak) ([2]; free Met 2 mg/mL, FIG. 6): no effect
- oxidation of Met residues in PTH (Met[O]-PTH peaks) ([2]; free Met 2 mg/mL, FIG. 6): significantly reduced
- protection of PTH against oxidation ([2]; stress H2O2, 40° C., 6 hours): protected
- protection of PTH against oxidation ([2]; stress H2O2, 40° C., 6 hours, listed as Free Met): neutralized the effect of the oxidants H2O2
- protection of PTH against oxidation [2, 6]: protected
- protection of PTH against oxidation ([2]; stress H2O2 plus Fe(II) (Fenton reaction), 40° C., 6 hours, listed as Free Met): neutralized the effect of the oxidants H2O2

Molecule: Cc1ncc(CO)c(CO)c1O [pyridoxine]
- protection of Trp residue in PTH [1]: excellent protection

Molecule: Cc1c(C)c2c(c(C)c1O)CCC(C)(C(=O)O)O2 (stereo not shown) [trolox, 6-hydroxy-2,5,7,8-tetramethylchroman-2-carboxylic acid]
- protection of Trp residue in PTH [1]: excellent protection

Molecule: N[C@@H](Cc1c[nH]c2ccccc12)C(=O)O [free tryptophan, L-Tryptophan]
- Met[O]-PTH peaks ([1]; free Trp 2 mg/mL, AAPH stress): prominent
- protection of Trp residue in PTH [1]: good protection
- protection of PTH against oxidation [1]: effective only against the oxidation by AAPH
- Trp oxidation of PTH, relative quantification by EIC [3]: suppressed the Trp oxidation significantly
- protection of anti-VEGF antibody against oxidation (basic peaks in IEC) [4]: excellent protection
- protection of anti-VEGF antibody against oxidation (basic peaks in IEC) ([4]; listed as Free Trp): effective in mitigating oxidation
- protection of anti-VEGF antibody against oxidation (basic peaks in IEC) ([4]; listed as free Trp): dropped to the baseline
- protection of anti-VEGF antibody against oxidation (basic peaks in IEC) ([4]; listed as tryptophan): effectively blocked the oxidative reaction
- Met[O]-PTH peaks ([2]; free Trp 2 mg/mL, Fenton reaction): much less so
- protection of Trp residue in PTH ([2]; stress Fenton reaction, stabilizer 2 mg/mL, 40° C., 6 hours): good protection
- protection of PTH against oxidation ([2]; stress H2O2, 40° C., 6 hours): no protection

Molecule: anti-VEGF antibody: humanized anti-VEGF antibody fragment, indicated for the treatment of neovascular (wet) age-related macular degeneration
- oxidation / peaks in basic region of IEC ([5]; AAPH): produced additional peaks in the basic region of IEC chromatogram
- oxidation / oxidative species in basic region of IEC [5]: did not cause the anti-VEGF antibody oxidation
- oxidation / oxidative species in basic region of IEC ([5]; listed as anti-VEGF): no oxidative species in basic region

Molecule: O=C([O-])CN(CCN(CC(=O)[O-])CC(=O)O)CC(=O)O.[Na+].[Na+] [EDTA, EDTA disodium]
- effect on Trp 50 oxidation of anti-VEGF antibody ([4]; EDTA added as stabilizer): inhibited; also recorded: improved stability
